{
  "source": "patent US8802597B2",
  "about": "“Herbicidal pyrimidines” (E I du Pont de Nemours and Company, priority 2003, dated 2014)",
  "format_in_all_cases": "in vivo",
  "key": {"[1]": {"tested_on": "guineagrass (Panicum maximum)", "test": "Test G pre/postemergence", "conditions": "Preemergence", "outline": "(§1)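 Visual scores from 0 (no effect) to 100 (complete control) were assigned relative to untreated controls 12 to 21 days after treatment. Compounds, formulated in a non-phytotoxic solvent mixture with surfactant, were applied preemergence to planted seed or postemergence to plants at the 1- to 4-leaf stage (2 to 18 cm).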"}, "[2]": {"tested_on": "field bindweed (Convolvulus arvensis)", "test": "Test G pre/postemergence", "conditions": "Preemergence", "outline": "as §1"}, "[3]": {"tested_on": "quackgrass (Elytrigia repens)", "test": "Test G pre/postemergence", "conditions": "Preemergence", "outline": "as §1"}, "[4]": {"tested_on": "common chickweed (Stellaria media)", "test": "Test G pre/postemergence", "conditions": "Preemergence", "outline": "as §1"}, "[5]": {"tested_on": "common ragweed (Ambrosia elatior)", "test": "Test G pre/postemergence", "conditions": "Preemergence", "outline": "as §1"}, "[6]": {"tested_on": "dallisgrass (Paspalum dilatatum)", "test": "Test G pre/postemergence", "conditions": "Preemergence", "outline": "as §1"}, "[7]": {"tested_on": "Surinam grass (Brachiaria decumbens)", "test": "Test G pre/postemergence", "conditions": "Preemergence", "outline": "as §1"}, "[8]": {"tested_on": "goosegrass (Eleusine indica)", "test": "Test G pre/postemergence", "conditions": "Preemergence", "outline": "as §1"}, "[9]": {"tested_on": "bermudagrass (Cynodon dactylon)", "test": "Test G pre/postemergence", "conditions": "Preemergence", "outline": "as §1"}, "[10]": {"tested_on": "downy bromegrass (Bromus tectorum)", "test": "Test G pre/postemergence", "conditions": "Preemergence", "outline": "as §1"}, "[11]": {"tested_on": "pigweed (Amaranthus retroflexus)", "test": "Test D pre/postemergence", "conditions": "scale 0 to 100 (100 = complete control)", "excerpt": "(§2) Seeds of plant species selected from catchweed bedstraw (galium; Galium aparine), common chickweed (Stellaria media), kochia (Kochia scoparia), lambsquarters (Chenopodium album), pigweed (Amaranthus retroflexus), Russian thistle (Salsola kali), wild buckwheat (Polygonum convolvulus), wild mustard (Sinapis arvensis), winter barley (Hordeum vulgare), and wheat (Triticum aestivum) were planted and treated preemergence with test chemicals formulated in a non-phytotoxic solvent mixture which included a surfactant.\n(§3) At the same time, plants selected from these crop and weed species were treated with postemergence applications of some of the test chemicals formulated in the same manner. Plants ranged in height from 2 to 18 cm (1- to 4-leaf stage) for postemergence treatments. Treated plants and controls were maintained in a controlled growth environment for 15 to 25 days after which time all species were compared to controls and visually evaluated. Plant response ratings, summarized in Table D, are based on a scale of 0 to 100 where 0 is no effect and 100 is complete control. A dash (-) response means no test result."}, "[12]": {"tested_on": "catchweed bedstraw (galium; Galium aparine)", "test": "Test D pre/postemergence", "conditions": "scale 0 to 100 (100 = complete control)", "excerpt": "as §2, §3"}},
  "data": [
    {"smiles": "COC(=O)c1nc(C2CC2)nc(N)c1Cl", "note": "[Compound 9, methyl 6-amino-5-chloro-2-cyclopropyl-4-pyrimidinecarboxylate]", "values": [
      {"measurement": "Plant response rating, Guineagrass", "setting": "[1]; 62 g ai/ha, scale 0-100", "value": 90},
      {"measurement": "Plant response rating, Guineagrass", "setting": "[1]; 125 g ai/ha, scale 0-100", "value": 100},
      {"measurement": "Plant response rating, Guineagrass", "setting": "[1]; 250 g ai/ha, scale 0-100", "value": 100},
      {"measurement": "Plant response rating, Guineagrass", "setting": "[1]; 500 g ai/ha, scale 0 to 100", "value": 100},
      {"measurement": "Plant response rating, Bindweed, Field", "setting": "[2]; 62 g ai/ha, scale 0-100", "value": 95},
      {"measurement": "Plant response rating, Bindweed, Field", "setting": "[2]; 125 g ai/ha, scale 0-100", "value": 100},
      {"measurement": "Plant response rating, Bindweed, Field", "setting": "[2]; 250 g ai/ha, scale 0-100", "value": 100},
      {"measurement": "Plant response rating, Bindweed, Field", "setting": "[2]; 500 g ai/ha, scale 0 to 100", "value": 100},
      {"measurement": "Plant response rating, Quackgrass", "setting": "[3]; 62 g ai/ha, scale 0-100", "value": 70},
      {"measurement": "Plant response rating, Quackgrass", "setting": "[3]; 250 g ai/ha, scale 0-100", "value": 70},
      {"measurement": "Plant response rating, Quackgrass", "setting": "[3]; 500 g ai/ha, scale 0 to 100", "value": 100},
      {"measurement": "Plant response rating, Chickweed", "setting": "[4]; 125 g ai/ha, scale 0-100", "value": 100},
      {"measurement": "Plant response rating, Chickweed", "setting": "[4]; 250 g ai/ha, scale 0-100", "value": 100},
      {"measurement": "Plant response rating, Chickweed", "setting": "[4]; 500 g ai/ha, scale 0 to 100", "value": 100},
      {"measurement": "Plant response rating, Ragweed", "setting": "[5]; 62 g ai/ha, scale 0-100", "value": 95},
      {"measurement": "Plant response rating, Ragweed", "setting": "[5]; 125 g ai/ha, scale 0-100", "value": 100},
      {"measurement": "Plant response rating, Ragweed", "setting": "[5]; 250 g ai/ha, scale 0-100", "value": 100},
      {"measurement": "Plant response rating, Ragweed", "setting": "[5]; 500 g ai/ha, scale 0 to 100", "value": 100},
      {"measurement": "Plant response rating, Dallisgrass", "setting": "[6]; 62 g ai/ha, scale 0-100", "value": 10},
      {"measurement": "Plant response rating, Dallisgrass", "setting": "[6]; 125 g ai/ha, scale 0-100", "value": 70},
      {"measurement": "Plant response rating, Dallisgrass", "setting": "[6]; 250 g ai/ha, scale 0-100", "value": 80},
      {"measurement": "Plant response rating, Dallisgrass", "setting": "[6]; 500 g ai/ha, scale 0 to 100", "value": 100},
      {"measurement": "Plant response rating, Surinam Grass", "setting": "[7]; 62 g ai/ha, scale 0-100", "value": 40},
      {"measurement": "Plant response rating, Surinam Grass", "setting": "[7]; 125 g ai/ha, scale 0-100", "value": 70},
      {"measurement": "Plant response rating, Surinam Grass", "setting": "[7]; 250 g ai/ha, scale 0-100", "value": 80},
      {"measurement": "Plant response rating, Surinam Grass", "setting": "[7]; 500 g ai/ha, scale 0 to 100", "value": 90},
      {"measurement": "Plant response rating, Goosegrass", "setting": "[8]; 62 g ai/ha, scale 0-100", "value": 10},
      {"measurement": "Plant response rating, Goosegrass", "setting": "[8]; 125 g ai/ha, scale 0-100", "value": 60},
      {"measurement": "Plant response rating, Goosegrass", "setting": "[8]; 250 g ai/ha, scale 0-100", "value": 95},
      {"measurement": "Plant response rating, Goosegrass", "setting": "[8]; 500 g ai/ha, scale 0 to 100", "value": 95},
      {"measurement": "Plant response rating, Bermudagrass", "setting": "[9]; 62 g ai/ha, scale 0-100", "value": 10},
      {"measurement": "Plant response rating, Bermudagrass", "setting": "[9]; 125 g ai/ha, scale 0-100", "value": 95},
      {"measurement": "Plant response rating, Bermudagrass", "setting": "[9]; 250 g ai/ha, scale 0-100", "value": 95},
      {"measurement": "Plant response rating, Bermudagrass", "setting": "[9]; 500 g ai/ha, scale 0 to 100", "value": 100},
      {"measurement": "Plant response rating, Bromegrass, Downy", "setting": "[10]; 62 g ai/ha, scale 0-100", "value": 10},
      {"measurement": "Plant response rating, Bromegrass, Downy", "setting": "[10]; 125 g ai/ha, scale 0-100", "value": 50},
      {"measurement": "Plant response rating, Bromegrass, Downy", "setting": "[10]; 250 g ai/ha, scale 0-100", "value": 70},
      {"measurement": "Plant response rating, Bromegrass, Downy", "setting": "[10]; 500 g ai/ha, scale 0 to 100", "value": 100},
      {"measurement": "Plant response rating, Pigweed", "setting": "[11]; Postemergence, 16 g ai/ha", "value": 65},
      {"measurement": "Plant response rating, Pigweed", "setting": "[11]; Postemergence, 31 g ai/ha", "value": 100},
      {"measurement": "Plant response rating, Pigweed", "setting": "[11]; Postemergence, 62 g ai/ha", "value": 100},
      {"measurement": "Plant response rating, Pigweed", "setting": "[11]; Postemergence, 125 g ai/ha", "value": 100},
      {"measurement": "Plant response rating, Pigweed", "setting": "[11]; Preemergence, 16 g ai/ha", "value": 65},
      {"measurement": "Plant response rating, Pigweed", "setting": "[11]; Preemergence, 31 g ai/ha", "value": 80},
      {"measurement": "Plant response rating, Pigweed", "setting": "[11]; Preemergence, 62 g ai/ha", "value": 100},
      {"measurement": "Plant response rating, Pigweed", "setting": "[11]; Preemergence, 125 g ai/ha", "value": 100},
      {"measurement": "Plant response rating, Galium", "setting": "[12]; Postemergence, 16 g ai/ha", "value": 100},
      {"measurement": "Plant response rating, Galium", "setting": "[12]; Postemergence, 31 g ai/ha", "value": 100},
      {"measurement": "Plant response rating, Galium", "setting": "[12]; Postemergence, 62 g ai/ha", "value": 100},
      {"measurement": "Plant response rating, Galium", "setting": "[12]; Postemergence, 125 g ai/ha", "value": 100},
      {"measurement": "Plant response rating, Galium", "setting": "[12]; Preemergence, 16 g ai/ha", "value": 85},
      {"measurement": "Plant response rating, Galium", "setting": "[12]; Preemergence, 31 g ai/ha", "value": 100},
      {"measurement": "Plant response rating, Galium", "setting": "[12]; Preemergence, 62 g ai/ha", "value": 100},
      {"measurement": "Plant response rating, Galium", "setting": "[12]; Preemergence, 125 g ai/ha", "value": 100}
    ]}
  ]
}
